35 compounds from patent publication US8084466B2, “Bicyclic heteroaryl-substituted imidazoles as modulators of the histamine H4 receptor” (Janssen Pharmaceutica NV, priority 2007, dated 2011) can be followed below.

T1 sequence (Q9H3N8 whole entry): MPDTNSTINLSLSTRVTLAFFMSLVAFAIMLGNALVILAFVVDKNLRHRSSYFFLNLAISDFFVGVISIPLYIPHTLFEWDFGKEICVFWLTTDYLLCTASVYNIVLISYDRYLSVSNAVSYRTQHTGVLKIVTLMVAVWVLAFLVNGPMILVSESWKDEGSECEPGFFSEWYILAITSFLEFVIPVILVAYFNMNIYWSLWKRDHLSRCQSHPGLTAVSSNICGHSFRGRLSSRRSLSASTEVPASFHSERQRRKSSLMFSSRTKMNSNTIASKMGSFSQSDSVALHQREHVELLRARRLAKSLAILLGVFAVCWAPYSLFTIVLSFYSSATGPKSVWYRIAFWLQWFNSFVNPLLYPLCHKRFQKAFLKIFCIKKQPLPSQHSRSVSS

This assay addresses T1, human histamine H4 receptor (Homo sapiens, UniProt Q9H3N8).
T1 construct: expressed in transfected cells; host or cells: SK-N-MC cells or COS7 cells, transient transfection with pH4R; cell membranes
The assay can be described thus: Binding Assay on Recombinant Human Histamine H4 Receptor. Conditions: competition binding with 3H-histamine (5 nM; KD 5 nM), membranes of SK-N-MC or COS7 cells expressing human H4 receptor; average of results; > = highest value tested. A digest of the protocol: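 Membranes from SK-N-MC or COS7 cells transiently transfected with H4R incubated 45 min at room temperature with ³H-histamine; nonspecific binding defined with 10,000 nM histamine. Filtration and scintillation counting. Ki from competition with 5 nM ³H-histamine, using a KD of 5 nM.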
Regarding `Clc1ccc2nc(-c3cccc4c3ccn4CCCCC3CCNCC3)[nH]c2c1` [Example 140, 6-Chloro-2-[1-(4-piperidin-4-yl-butyl)-1H-indol-4-yl]-1H-benzoimidazole], the inhibitory constant (Ki) was 3330 nM. Regarding `Clc1cccc2[nH]c(-c3cccc4c3ccn4CCCCC3CCNCC3)nc12` [Example 36, 4-Chloro-2-[1-(4-piperidin-4-yl-butyl)-1H-indol-4-yl]-1H-benzoimidazole], the Ki came out at 2330 nM. With `Cc1c(F)ccc2[nH]c(-c3cccc4c3c(Cl)cn4CCCCC3CCN(C)CC3)nc12` [Example 31, 2-{3-Chloro-1-[4-(1-methyl-piperidin-4-yl)-butyl]-1H-indol-4-yl}-5-fluoro-4-methyl-1H-benzoimidazole], the Ki was found to be 118 nM.

For the compound `Cc1c(F)ccc2[nH]c(-c3ccc4ncn(CCCCC5CCN(C)CC5)c4c3)nc12` [Example 45, 5-Fluoro-4-methyl-3′-[4-(1-methyl-piperidin-4-yl)-butyl]-1H,3′H-[2,5′]bibenzoimidazolyl], the inhibition constant (Ki) worked out at 1670 nM. Consider `Cc1c(F)ccc2[nH]c(-c3ccc4c(ncn4CCCC4CCNCC4)c3C)nc12` [Example 114, 5-Fluoro-4,4′-dimethyl-1′-(3-piperidin-4-yl-propyl)-1H,1′H-[2,5′]bibenzoimidazolyl], for which the Ki is 205 nM. The value for `Cc1nc(-c2ccc3c(ncn3CCCC3CCN(C)CC3)c2C)[nH]c1-c1ccc(C(F)(F)F)cc1` [Example 82, 4-Methyl-1-[3-(1-methyl-piperidin-4-yl)-propyl]-5-[4-methyl-5-(4-trifluoromethyl-phenyl)-1H-imidazol-2-yl]-1H-benzoimidazole] was 0.3 nM; that for `CN1CCC(CCCCn2ccc3c(-c4nc5cc6c(cc5[nH]4)OCO6)cccc32)CC1` [Example 19, 6-{1-[4-(1-Methyl-piperidin-4-yl)-butyl]-1H-indol-4-yl}-5H-[1,3]dioxolo[4′,5′:4,5]benzo[1,2-d] imidazole] was 404 nM; that for `CN1CCC(CCCCn2ccc3c(-c4nc5cc(F)c(F)cc5[nH]4)cccc32)CC1` [Example 67, 5,6-Difluoro-2-{1-[4-(1-methyl-piperidin-4-yl)-butyl]-1H-indol-4-yl}-1H-1 5 benzoimidazole] was 184 nM. In the case of `O=C(c1ccccc1)c1ccc2[nH]c(-c3cccc4c3ccn4CCCCC3CCNCC3)nc2c1` [Example 77, Phenyl-{2-[1-(4-piperidin-4-yl-butyl)-1H-indol-4-yl]-1H-benzoimidazol-5-yl}-methanone], the inhibition constant (Ki) turned out to be 1670 nM.

With `Cc1ccc2[nH]c(-c3ccc4ncn(CCCCC5CCNCC5)c4c3)nc2c1C` [Example 123, 4,5-Dimethyl-3′-(4-piperidin-4-yl-butyl)-1H,3′H-[2,5′]bibenzoimidazolyl], the Ki worked out at 3330 nM. The value for `Cc1c(F)ccc2[nH]c(-c3cnc4c(ccn4CCCC4CCNCC4)c3)nc12` [Example 91, 5-Fluoro-4-methyl-2-[1-(3-piperidin-4-yl-propyl)-1H-pyrrolo[2,3-b]pyridin-5-yl]-1H-benzoimidazole] was 762 nM. In the case of `Cc1ccc2[nH]c(-c3ccc4c(ccn4CCCN4CCNCC4)c3)nc2c1C` [Example 62, 4,5-Dimethyl-2-[1-(3-piperazin-1-yl-propyl)-1H-indol-5-yl]-1H-benzoimidazole], the Ki is 1310 nM. The value for `Cc1c(F)ccc2[nH]c(-c3ccc4c(ccn4CCCC4CCN(C)CC4)c3Cl)nc12` [Example 8, 2-{4-Chloro-1-[3-(1-methyl-piperidin-4-yl)-propyl]-1H-indol-5-yl}-5-fluoro-4-methyl-1H-benzoimidazole] was 29 nM; that for `Cc1c(F)ccc2[nH]c(-c3ccc4ccn(CCCCC5CCN(C)CC5)c4c3)nc12` [Example 26, 5-Fluoro-4-methyl-2-{1-[4-(1-methyl-piperidin-4-yl)-butyl]-1H-indol-6-yl}-1H-benzoimidazole] was 880 nM; that for `CC(C)(C)c1ccc2[nH]c(-c3ccc4c(ccn4CCCN4CCNCC4)c3)nc2c1` [Example 63, 5-tert-Butyl-2-[1-(3-piperazin-1-yl-propyl)-1H-indol-5-yl]-1H-benzoimidazole] was 1680 nM. The value for `Cc1nc2ccc3nc(-c4cccc5c4c(Cl)cn5CCCCC4CCNCC4)[nH]c3c2s1` [Example 134, 7-[3-Chloro-1-(4-piperidin-4-yl-butyl)-1H-indol-4-yl]-2-methyl-8H-imidazo[4′,5′:3,4]benzo[1,2-d]thiazole] was greater than 10000 nM. The value for `Cc1c(F)ccc2[nH]c(-c3ccc4c(ccn4CCCC4CCN(C)CC4)c3)nc12` [Example 11, 5-Fluoro-4-methyl-2-{1-[3-(1-methyl-piperidin-4-yl)-propyl]-1H-indol-5-yl}-1H-benzoimidazole] was 77 nM; that for `CN1CCC(CCCCn2cc(Cl)c3c(-c4nc5cc(C(F)(F)F)ccc5[nH]4)cccc32)CC1` [Example 30, 2-{3-Chloro-1-[4-(1-methyl-piperidin-4-yl)-butyl]-1H-indol-4-yl}-5-trifluoromethyl-1H-benzoimidazole] was 47 nM; that for `Cc1cc(C)c2nc(-c3ccc4c(c3Cl)CCN4CCCC3CCN(C)CC3)[nH]c2c1` [Example 3, 2-{4-Chloro-1-[3-(1-methyl-piperidin-4-yl)-propyl]-2,3-dihydro-1H-indol-5-yl}-4,6-dimethyl-1H-benzoimidazole] was 33 nM. Regarding `Cc1cc(Cl)cc2[nH]c(-c3cccc4c3ccn4CCCCC3CCNCC3)nc12` [Example 104, 6-Chloro-4-methyl-2-[1-(4-piperidin-4-yl-butyl)-1H-indol-4-yl]-1H-benzoimidazole], the inhibition constant (Ki) amounted to 2330 nM. The value for `CN1CCC(CCCn2ccc3cc(-c4nc5cc(Cl)ccc5[nH]4)c(Cl)cc32)CC1` [Example 102, 5-Chloro-2-{6-chloro-1-[3-(1-methyl-piperidin-4-yl)-propyl]-1H-indol-5-yl}-1H-benzoimidazole] was greater than 10000 nM. The same measure for `c1cc(-c2nc3cc4c(cc3[nH]2)OCO4)c2ccn(CCCCC3CCNCC3)c2c1` [Example 76, 6-[1-(4-Piperidin-4-yl-butyl)-1H-indol-4-yl]-5H-[1,3]dioxolo[4′,5′:4,5]-benzo[1,2-d]imidazole]: 1940 nM; for `CN1CCC(CCCCn2cc(Cl)c3c(-c4nc5c(F)c(F)ccc5[nH]4)cccc32)CC1` [Example 75, 2-{3-Chloro-1-[4-(1-methyl-piperidin-4-yl)-butyl]-1H-indol-4-yl}-4,5-difluoro-1H-benzoimidazole]: 1000 nM; for `Fc1cc(F)c2nc(-c3cccc4c3ccn4CCCCC3CCNCC3)[nH]c2c1` [Example 116, 4,6-Difluoro-2-[1-(4-piperidin-4-yl-butyl)-1H-indol-4-yl]-1H-benzoimidazole]: 3330 nM.

Turning to `CN1CCC(CCCCn2ccc3c(-c4nc5cc(C(=O)c6ccccc6)ccc5[nH]4)cccc32)CC1` [Example 20, (2-{1-[4-(1-Methyl-piperidin-4-yl)-butyl]-1H-indol-4-yl}-1H-benzoimidazol-5-yl)-phenyl-methanone], the inhibition constant Ki was 619 nM.

Regarding `Cc1c(Cl)ccc2[nH]c(-c3ccc4c(ncn4CCCC4CCN(C)CC4)c3C)nc12` [Example 54, 5-Chloro-4,4′-dimethyl-1′-[3-(1-methyl-piperidin-4-yl)-propyl]-1H ,1′H-[2,5′]bibenzoimidazolyl], the inhibition constant Ki came to 1 nM. The same measure for `Cc1cc(F)cc2[nH]c(-c3ccc4c(ncn4CCCC4CCN(C)CC4)c3C)nc12` [Example 55, 6-Fluoro-4,4′-dimethyl-1′-[3-(1-methyl-piperidin-4-yl)-proyl]-1H,1′H-[2,5′]bibenzoimidazolyl]: 4 nM; for `Fc1ccc2[nH]c(-c3cccc4c3ccn4CCCCC3CCNCC3)nc2c1F` [Example 110, 4,5-Difluoro-2-[1-(4-piperidin-4-yl-butyl)-1H-indol-4-yl]-1H-benzoimidazole]: 3330 nM. The same measure for `CN1CCC(CCCCn2ccc3c(-c4nc5c(F)cc(F)cc5[nH]4)cccc32)CC1` [Example 70, 4,6-Difluoro-2-{1-[4-(1-methyl-piperidin-4-yl)-butyl]-1H-indol-4-yl}-1H-benzoimidazole]: 102 nM. Turning to `Cc1ccc2[nH]c(-c3ccc4c(c3)CCN4CCCC3CCNCC3)nc2c1C` [Example 56, 4,5-Dimethyl-2-[1-(3-piperidin-4-yl-propyl)-2,3-dihydro-1H-indol-5-yl]-1H-benzoimidazole], the inhibition constant (Ki) was determined as 1900 nM. `Cc1c(-c2nc3c(C)c(F)ccc3[nH]2)ccc2c1CCN2CCCC1CCN(C)CC1` [Example 1, 5-Fluoro-4-methyl-2-{4-methyl-1-[3-(1-methyl-pieridin-4-yl)-proyl]-2,3-dihydro-1H-indol-5-yl}-1H-benzoimidazole]: the Ki was found to be 29 nM.

As for `Cc1c(F)ccc2[nH]c(-c3ccc4c(c3)ncn4CCCCC3CCN(C)CC3)nc12` [Example 44, 5-Fluoro-4-methyl-1′-[4-(1-methyl-piperidin-4-yl)-butyl]-1H,1′H-[2.5′]bibenzoimidazolyl], the inhibitory constant (Ki) amounted to 3000 nM.

Consider `Cc1nc(-c2ccc3c(ncn3CCCC3CCN(C)CC3)c2C)[nH]c1-c1ccc(C(F)(F)F)cc1` [Example 142, 4-Methyl-1-[3-(1-methyl-piperidin-4-yl)-propyl]-5-[4-methyl-5-(4-trifluoromethyl-phenyl)-1H-imidazol-2-yl]-1H-benzoimidazole], for which the inhibition constant (Ki) was found to be 7 nM.

In the case of `Cc1c(F)ccc2[nH]c(-c3cccc4c3ccn4CCCCC3CCN(C)CC3)nc12` [Example 16, 5-Fluoro-4-methyl-2-{1-[4-(1-methyl-piperidin-4-yl)-butyl]-1H-indol-4-yl}-1H-benzoimidazole], the Ki was found to be 23 nM.

`Cc1c(F)ccc2[nH]c(-c3ccc4c(ccn4CCCN4CCN(C)CC4)c3)nc12` [Example 13, 5-Fluoro-4-methyl-2-{1-[3-(4-methyl-piperazin-1-yl)-propyl]-1H-indol-5-yl}-1H-benzoimidazole]: the Ki was 168 nM.

For orientation: Ki means a dissociation constant, usually derived from enzyme kinetics or from competition with a known ligand.
